These results are taken from patent publication US20160320368A1, “METHOD AND APPARATUS FOR PREDICTING EFFECTIVE DOSE OR SENSITIVITY OF 5-HYDROXY-1H-IMIDAZOLE-4-CARBOXAMIDE, METHOD FOR DETERMINING AMOUNT OF XANTHOSINE MONOPHOSPHATE, AND TREATMENT AGENT AND METHOD FOR TREATING MYELODYSPLASTIC SYNDROME” (FUJIFILM Corporation, priority 2014, published 2016).

The assay has as its system XMP in blood cells after hemolysis. In words: XMP in blood cells after hemolysis (Example 5). Format: cell-based. The settings on record: Homo sapiens, 37° C., 8 hours, non-treated = 100%; for XMP amount (% of non-treated) at 1 µg/mL: Compound A 1 μg/mL; for XMP amount (% of non-treated) at 3 µg/mL: Compound A 3 μg/mL; for XMP amount (% of non-treated) at 10 µg/mL: Compound A 10 μg/mL; for XMP amount (% of non-treated) at 30 µg/mL: Compound A 30 μg/mL; for XMP amount (% of non-treated) at 100 µg/mL: Compound A 100 μg/mL. Here is the method:
A ¾ hydrate of Compound A was used s a test compound.
450 μL of the blood collected from two healthy individuals by heparinized blood collection (Analyte A and Analyte B) was added to each tube, and 50 μL of a PBS solution of the test compound (0 μg/mL, 10 μg/mL, 30 μg/mL, 100 μg/mL, 300 μg/mL, or 1000 μg/mL in terms of Compound A) for each concentration was added to each tube. The reaction mixture was stirred in an incubator at 37° C. for 8 hours.
BD Pharm Lyse (555899, manufactured by Becton, Dickinson and Company, Inc.) was added to the blood sample obtained in (1) (2 mL of BD Pharm Lyse was added relative to 0.2 mL of blood). After stirring with a vortex mixer, the reaction solution was protected from light and allowed to stand at room temperature for 15 min. After centrifugation at 20° C. and 1000×g for 5 min, the supernatant was removed and suspended in 10 mL of PBS. After centrifugation at 4° C. and 1000×g for 5 min, the supernatant was removed, and 1000 μL of methanol was added to each tube, followed by stirring. Thereafter, 500 μL of ultrapure water was added thereto, followed by further stirring. 600 μL of the reaction solution was divided into each of two tubes, and 400 μL of chloroform was added to each tube. The reaction solution was stirred and then centrifuged at 4° C. and 10000×g for 15 min. 400 μL of the aqueous phase was recovered and added to an ultrafiltration tube (UltrafreeMC-PLHCC 250/pk for Metabolome Analysis (manufactured by Human Metabolome Technologies)), followed by centrifugation at 12° C. and 9200×g for 2 hours. The filtrates were combined and then dried under reduced pressure at 40° C. for 2 hours by using a centrifugal evaporator. After drying, the resulting product was stored in a freezer at −80° C.
The samples obtained in (2-1) and (2-2) were returned to room temperature and 40 μL of ultrapure water was added to each sample. The mixture was stirred and centrifuged at 4° C. and 21500×g for 5 min. 35 μL of the supernatant was transferred to a vial. After storage at 4° C., XMP in samples was determined in the LC-MS/MS determination instrument, LC conditions and MS/MS conditions described in Example 3 (3).
Amounts of XMP (%) were calculated assuming that amounts of XMP in a non-Compound A treated group are defined as 100%.

[1] abbreviates: read-out: Amount of XMP (%) Analyte A Hemolysis.
Setting [2] is: read-out: Amount of XMP (%) Analyte B Hemolysis.

Like-named read-outs stand apart in the source and are kept apart here.

With `NC(=O)c1nc[nH]c1O` [Compound A, 5-Hydroxy-1H-imidazole-4-carboxamide], under setting [1], the XMP amount (% of non-treated) at 1 µg/mL was 60%, the XMP amount (% of non-treated) at 3 µg/mL came to 45%, the XMP amount (% of non-treated) at 10 µg/mL was found to be 37% and the XMP amount (% of non-treated) at 30 µg/mL was 27%. For the same compound, the XMP amount (% of non-treated) at 100 µg/mL under setting [1] came to 16%. In addition, under setting [2], the XMP amount (% of non-treated) at 1 µg/mL came out at 51%, the XMP amount (% of non-treated) at 3 µg/mL was 37%, the XMP amount (% of non-treated) at 10 µg/mL was 25% and the XMP amount (% of non-treated) at 30 µg/mL turned out to be 18%. The XMP amount (% of non-treated) at 100 µg/mL under setting [2] came out at 10%.
